Consider 4 molecules from patent US6844352B2, “1′-[4-[1-(4-fluorophenyl)-1H-indole-3-yl]-1-butyl]-spiro[isobenzofuran-1(3H),4′-piperidine] hydrohalogenides” (H. Lundbeck A/S, priority 1997, dated 2005).

Data set [1] is described as follows: Bioavailability experiments in dogs. It is filed as in vivo.
A short description of data set [2]: Bioavailability study after multiple oral administration in Beagle dogs (serum levels by HPLC). The note with it: both sexes, dog, area under serum concentration versus time curve 0-24 hours after dosing on day 7, 10 mg/kg/day (as free base) orally in gelatine capsules for 7 days, read-out: AUC0-24.7 Mean. It is filed as in vivo. The method, then: After multiple administration in Beagle dogs, the bioavailability of the salts of 1′-[4-[1-(4-fluorophenyl)-1H-indole-3-yl]-1-butyl]-spiro[isobenzofuran-1(3H),4′-piperidine] was investigated as described in the following study:
Two groups, each consisting of four Beagle dogs (2 males and 2 females) were used in the study.
The dogs in the individual groups were given single daily doses of 10 mg/kg/day (calculated as free base) of the fumarate and the hydrochloride of 1′-[4-[1-(4-fluorophenyl)-1H-indole-3-yl]-1-butyl]-spiro[isobenzofuran-1(3H),4′-piperidine] for seven days.
Blood samples for serum preparation were drawn from the test animals at specific nominal time points before and after dosing on each day and analyzed using HPLC. […]
Single doses of the different salts corresponding to 10.0 mg (˜21997 nmol ) of 1′-[4-[1-(4-fluorophenyl)-1H-indole-3-yl]-1-butyl]-spiro[isobenzofuran-1(3H),4′-piperidine] per kg body weight were accurately weighed into gelatine capsules. The calculated amounts of test compound for each dog were based on body weights measured at study start. […]
The exact blood sampling times for each dog relative to the first dose were recorded. […]
The serum samples obtained were analysed for content of 1′-[4-[1-(4-fluorophenyl)-1H-indole-3-yl]-1-butyl]-spiro[isobenzofuran-1(3H),4′-piperidine] by a pseudo-normal phase HPLC-method after liquid-liquid extraction. […]

A short description of data set [3]: Bioavailability experiments in rats. It is filed as in vivo.
The nature of data set [4]: Aqueous solubility. It is filed as physicochemical.
The subject of data set [5] is rats. To be noted: cited from earlier work.
The test system of data set [6] is sigma receptors. To be noted: cited from earlier work.
In data set [7] the test system is sigma receptor. To be noted: cited from earlier work.

SMILES strings stand for the structures.

Consider `Fc1ccc(-n2cc(CCCCN3CCC4(CC3)OCc3ccccc34)c3ccccc32)cc1.O=C(O)/C=C/C(=O)O` [Fumarate, 1′-[4-[1-(4-fluorophenyl)-1H-indole-3-yl]-1-butyl]-spiro[isobenzofuran-1(3H),4′-piperidine], fumarate], for which the bioavailability entry in data set [1] and in data set [3] was “limited bioavailablity” in each case. In addition, in data set [2], the AUC(0-t) was 4.02 µM·h. Also, the aqueous solubility result in data set [4] is recorded as “very low”.

On to `Cl.Fc1ccc(-n2cc(CCCCN3CCC4(CC3)OCc3ccccc34)c3ccccc32)cc1` [Hydrochloride, 1′-[4-[1-(4-fluorophenyl)-1H-indole-3-yl]-1-butyl]-spiro[isobenzofuran-1(3H),4′-piperidine], hydrochloride], for which the AUC(0-t) in data set [2] amounted to 12 µM·h. The “water solubility compared to the fumarate” value in data set [4] is “improved water solubility”.

Turning to `Fc1ccc(-n2cc(CCCCN3CCC4(CC3)OCc3ccccc34)c3ccccc32)cc1` [free base, 1′-[4-[1-(4-fluorophenyl)-1H-indole-3-yl]-1-butyl]-spiro[isobenzofuran-1(3H),4′-piperidine]], the “anxiolytic potential in black/white exploration test” value in data set [5] is on record as “active over a large dose range”. Moreover, the “sigma ligand potency and selectivity” value in data set [6] is “potent and selective sigma ligand”. Further, the aqueous solubility result in data set [4] is “very low”.

As for `C[C@@H]1CN(CCCn2c3ccccc3c3ccccc32)C[C@H](C)N1` [rimcazole], the “clinical effect in the treatment of psychoses” value in data set [7] is “clinically shows effect”.
